Assay results taken from US20050090428A1, “Porphyrins with virucidal activity” (priority 2002, published 2005).

How the values were obtained:
[1] = molecular target: T1, HIV-1 Env protein (HXB2 Env) (Human immunodeficiency virus type 1 group M subtype B, UniProt P04578); type: cell-based
T1 construct: expressed in transfected cells; host or cells: 293T cells transfected with pIIIenv3-1 plus pCMVTAT; cocultured with 3T3 cells expressing CD4 and CXCR4

[2] = molecular target: 89.6 Env (Human immunodeficiency virus type 1 group M subtype B, UniProt Q73372); type: cell-based, HIV-1
[3] = system: HIV-1 IIIB; assay: Screening for virucidal activity against HIV-1 IIIB, MAGI cell assay; details: for inhibition of HIV-1 IIIB (percent virus inactivated), screening assay: 50 μg/ml, 1 hr in the dark, diluted 10-fold, MAGI cells, without removal of free compound; for activity against HIV in words: MAGI screening assay, HIV-1 IIIB
[4] = system: HSV-1(F) or HSV-2(G); assay: In vitro HSV inactivation, plaque assay on Vero cells; type: cell-based, herpes simplex virus; details: room temperature, in the dark, up to 60 minutes
Description: Either HSV-1(F) or HSV-2(G) (10^7 pfu) was mixed with 1 ml of porphyrin at the concentration indicated in Dulbecco's modified Eagle's medium (DME) with 1% newborn calf serum. All assays were performed in duplicate. All tubes were wrapped in foil to keep out light, and ambient room light was reduced as much as was practicable. Virus and porphyrin were incubated together at room temperature for times up to 60 minutes (Table 2). Following incubation, 10 fold serial dilutions were performed in DME with 1% newborn serum, using tubes wrapped in foil. Virus was diluted 20,000 fold and plated on Vero cells. Following a 2 hour incubation with the cells, the inoculum was removed and cells were overlaid with DME with 1% newborn calf serum and 0.2% human gamma globulin. Cells were fixed and stained, and plaques counted, 2 days after infection.

[5] = molecular target: T2, binding of HIV-1 IIIB gp120 to CD4 (Human immunodeficiency virus type 1 group M subtype B, UniProt P04578); assay: gp120-CD4 binding assay (ELISA); details: 1 hr at room temperature
T2 construct: The recombinant IIB gp120 protein (baculovirus-expressed) was obtained from Intracel; purchased Intracel (Cambridge, Mass.) for gp120; host or cells: baculovirus-expressed (gp120)
Description: To investigate the possible effect of porphyrin compounds on binding of HIV-1 IIIB gp120 to CD4, a gp120 CD4 binding assay was developed. The assay was developed as a modification of a capture gp120 ELISA kit (Intracel Corporation). Briefly, a 96-well plate was coated with soluble CD4 and 0.5 μg of HIV-1 IIIB gp120 per well was incubated in the presence or absence of test compounds for 1 hr at room temperature. After four washes with buffer to remove unbound proteins, the bound gp120 was detected by anti-gp120 peroxidase-conjugated antibodies and quantitated by the protocol provided by the manufacturer.

[6] = molecular target: IIIB Env of HIV 1 (Human immunodeficiency virus type 1 group M subtype B, UniProt P03375); type: cell-based

Sequence of 89.6 Env (Q73372 32-719 limits assumed): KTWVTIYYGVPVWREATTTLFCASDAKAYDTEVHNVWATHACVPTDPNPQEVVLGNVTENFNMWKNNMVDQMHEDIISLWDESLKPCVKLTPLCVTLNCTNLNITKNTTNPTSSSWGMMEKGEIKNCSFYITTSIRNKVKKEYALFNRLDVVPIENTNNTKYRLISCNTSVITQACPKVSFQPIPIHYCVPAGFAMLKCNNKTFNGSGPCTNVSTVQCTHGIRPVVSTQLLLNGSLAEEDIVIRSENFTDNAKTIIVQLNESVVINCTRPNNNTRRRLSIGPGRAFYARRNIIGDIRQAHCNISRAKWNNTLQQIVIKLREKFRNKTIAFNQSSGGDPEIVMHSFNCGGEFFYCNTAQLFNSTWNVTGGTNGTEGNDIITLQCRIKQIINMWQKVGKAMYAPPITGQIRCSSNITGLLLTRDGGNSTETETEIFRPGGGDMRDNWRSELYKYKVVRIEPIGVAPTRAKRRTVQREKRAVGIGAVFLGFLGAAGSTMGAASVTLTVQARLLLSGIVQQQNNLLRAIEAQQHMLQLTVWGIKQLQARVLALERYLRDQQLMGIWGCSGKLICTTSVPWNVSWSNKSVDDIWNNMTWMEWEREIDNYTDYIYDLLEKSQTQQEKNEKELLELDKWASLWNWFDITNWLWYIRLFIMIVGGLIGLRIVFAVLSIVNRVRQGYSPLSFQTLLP
Sequence of 89.6 Env (Q73372 509-719 partner limits assumed): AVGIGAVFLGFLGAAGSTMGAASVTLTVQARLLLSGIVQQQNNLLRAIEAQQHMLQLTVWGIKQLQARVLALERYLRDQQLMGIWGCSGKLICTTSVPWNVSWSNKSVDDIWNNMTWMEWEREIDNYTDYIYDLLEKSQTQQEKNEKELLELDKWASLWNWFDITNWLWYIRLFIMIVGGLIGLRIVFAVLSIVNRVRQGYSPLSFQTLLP

Molecule	Presence of nuclei in syncytia, pIIIenv X4, 6 h [1]	Presence of nuclei in syncytia, VV89.6 envt X4, 23 h [2]	inhibition of HIV-1 IIIB (percent virus inactivated), screening assay [3]	inactivating HSVs [4]	also measured
O=S(=O)(O)c1ccc(-c2c3nc(c(-c4ccc(S(=O)(=O)O)cc4)c4ccc([nH]4)c(-c4ccc(S(=O)(=O)O)cc4)c4nc(c(-c5ccc(S(=O)(=O)O)cc5)c5ccc2[nH]5)C=C4)C=C3)cc1 [TPPS4, mesotetra(4-sulfonatophenyl)porphine]	−	−/4+ (key: 4+: more than 50% of nuclei are in syncytia; 3+: 30 to 50% of nuclei are in syncytia; 2+: 30 to 10% of nuclei are in syncytia; +: less than 10% of nuclei are in syncytia; −: no syncytia were observed)	93%		Presence of nuclei in syncytia, VV89.6 envt R5, 23 h [2]: 1+/4+ (key: 4+: more than 50% of nuclei are in syncytia; 3+: 30 to 50% of nuclei are in syncytia; 2+: 30 to 10% of nuclei are in syncytia; +: less than 10% of nuclei are in syncytia; −: no syncytia were observed); Presence of nuclei in syncytia, VV89.6 envt X4, 6 h [2]: −/4+
O=S(=O)(O)c1ccc(-c2c3nc(c(-c4ccc(S(=O)(=O)O)cc4)c4ccc([nH]4)c(-c4ccc(S(=O)(=O)O)cc4)c4nc(c(-c5ccccc5)c5ccc2[nH]5)C=C4)C=C3)cc1.[Zn] [TPPS3,Zn]				active	
sulfonated 2-fluoroTPP [TPP2FS]	−	1+/4+ (key: 4+: more than 50% of nuclei are in syncytia; 3+: 30 to 50% of nuclei are in syncytia; 2+: 30 to 10% of nuclei are in syncytia; +: less than 10% of nuclei are in syncytia; −: no syncytia were observed)	about 80%	active	inhibition of gp120/CD4 binding [5]: 81%; Presence of nuclei in syncytia, VVenvl X4, 6 h [6]: −/4+; Presence of nuclei in syncytia, VVenvl X4, 23 h [6]: −/4+ (key: 4+: more than 50% of nuclei are in syncytia; 3+: 30 to 50% of nuclei are in syncytia; 2+: 30 to 10% of nuclei are in syncytia; +: less than 10% of nuclei are in syncytia; −: no syncytia were observed); Presence of nuclei in syncytia, VV89.6 envt R5, 6 h [2]: 4+/4+ (key: 4+: more than 50% of nuclei are in syncytia; 3+: 30 to 50% of nuclei are in syncytia; 2+: 30 to 10% of nuclei are in syncytia; +: less than 10% of nuclei are in syncytia; −: no syncytia were observed); Presence of nuclei in syncytia, VV89.6 envt R5, 23 h [2]: 4+/4+ (key: 4+: more than 50% of nuclei are in syncytia; 3+: 30 to 50% of nuclei are in syncytia; 2+: 30 to 10% of nuclei are in syncytia; +: less than 10% of nuclei are in syncytia; −: no syncytia were observed)
sulfonated 2,6-difluoroTPP [TPP(2,6-F2)S]	−	1+/4+ (key: 4+: more than 50% of nuclei are in syncytia; 3+: 30 to 50% of nuclei are in syncytia; 2+: 30 to 10% of nuclei are in syncytia; +: less than 10% of nuclei are in syncytia; −: no syncytia were observed)		active	inhibition of gp120/CD4 binding in words [5]: completely inhibit binding; Presence of nuclei in syncytia, VV89.6 envt R5, 23 h [2]: 1+/4+ (key: 4+: more than 50% of nuclei are in syncytia; 3+: 30 to 50% of nuclei are in syncytia; 2+: 30 to 10% of nuclei are in syncytia; +: less than 10% of nuclei are in syncytia; −: no syncytia were observed); activity against HIV in words [3]: most active
tetrakis(2-fluorosulfonatonatophenyl)porphyrin,Cu				active	
O=S(=O)(O)c1ccc(C2=C3C=CC(=N3)[C-](c3ccc(S(=O)(=O)O)cc3)C3=NC(=C(c4ccc(S(=O)(=O)O)cc4)c4[cH-]cc(n4)C(c4ccc(S(=O)(=O)O)cc4)=C4C=CC2=N4)C=C3)cc1.[Cu+2] (stereo not shown) [TPPS4,Cu]	−		97%	active	inhibition of gp120/CD4 binding [5]: 80-100%; inhibition of HIV-induced cell fusion in words [6]: Complete inhibition; activity against HIV in words [3]: intermediate levels of activity
Cc1cc(C)c(S(=O)(=O)O)c(C)c1-c1c2nc(c(-c3c(C)cc(C)c(S(=O)(=O)O)c3C)c3ccc([n-]3)c(-c3c(C)cc(C)c(S(=O)(=O)O)c3C)c3nc(c(-c4c(C)cc(C)c(S(=O)(=O)O)c4C)c4ccc1[n-]4)C=C3)C=C2.[Co+2] [TMPS,Co]			about 80%	active	
tetrakis(2-chlorosulfonatophenyl)porphyrin				active	
O=S(=O)(O)c1ccc(-c2c3nc(c(-c4ccc(S(=O)(=O)O)cc4)c4ccc([n-]4)c(-c4ccc(S(=O)(=O)O)cc4)c4ccc([n-]4)c(-c4ccc(S(=O)(=O)O)cc4)c4nc2C=C4)C=C3)cc1.[Ni+2] [TPPS4,Ni]		−/3+ (key: 4+: more than 50% of nuclei are in syncytia; 3+: 30 to 50% of nuclei are in syncytia; 2+: 30 to 10% of nuclei are in syncytia; +: less than 10% of nuclei are in syncytia; −: no syncytia were observed)			Presence of nuclei in syncytia, VV89.6 envt R5, 6 h [2]: −/1+; Presence of nuclei in syncytia, VV89.6 envt X4, 6 h [2]: −/3+
O=S(=O)(O)c1ccc(-c2c3nc(c(-c4ccc(S(=O)(=O)O)cc4)c4ccc([nH]4)c(-c4ccc(S(=O)(=O)O)cc4)c4nc(c(-c5ccc(S(=O)(=O)O)cc5)c5ccc2[nH]5)C=C4)C=C3)cc1.[Zn] [TPPS4,Zn]				active	
O=S(=O)(O)c1ccc(-c2c3nc(c(-c4ccc(S(=O)(=O)O)cc4)c4ccc([nH]4)c(-c4ccc(S(=O)(=O)O)cc4)c4nc(c(-c5ccccc5)c5ccc2[nH]5)C=C4)C=C3)cc1.[Cu] [TPPS3,Cu]				active	
O=S(=O)(O)c1ccc(Cl)c(-c2c3nc(c(-c4c(Cl)ccc(S(=O)(=O)O)c4Cl)c4ccc([nH]4)c(-c4c(Cl)ccc(S(=O)(=O)O)c4Cl)c4nc(c(-c5c(Cl)ccc(S(=O)(=O)O)c5Cl)c5ccc2[nH]5)C=C4)C=C3)c1Cl [tetrakis(2,6dichlorosulfonatonatophenyl)porphyrin]				active	
sulfonated 4-chloroTPP [TPP4ClS]			about 97%		inhibition of gp120/CD4 binding [5]: 85%; activity against HIV in words [3]: most active
O=S(=O)(O)c1ccc(-c2c3nc(c(-c4ccc(S(=O)(=O)O)cc4)c4ccc([n-]4)c(-c4ccc(S(=O)(=O)O)cc4)c4nc(c(-c5ccc(S(=O)(=O)O)cc5)c5ccc2[n-]5)C=C4)C=C3)cc1.[Pd+2] [TPPS4,Pd]	−	−/4+ (key: 4+: more than 50% of nuclei are in syncytia; 3+: 30 to 50% of nuclei are in syncytia; 2+: 30 to 10% of nuclei are in syncytia; +: less than 10% of nuclei are in syncytia; −: no syncytia were observed)			Presence of nuclei in syncytia, VV89.6 envt R5, 6 h [2]: −/4+; Presence of nuclei in syncytia, VV89.6 envt R5, 23 h [2]: −/4+ (key: 4+: more than 50% of nuclei are in syncytia; 3+: 30 to 50% of nuclei are in syncytia; 2+: 30 to 10% of nuclei are in syncytia; +: less than 10% of nuclei are in syncytia; −: no syncytia were observed); Presence of nuclei in syncytia, VV89.6 envt X4, 6 h [2]: −/4+
O=C(O)c1ccc(-c2c3nc(c(-c4ccc(C(=O)O)cc4)c4ccc([nH]4)c(-c4ccc(C(=O)O)cc4)c4nc(c(-c5ccc(C(=O)O)cc5)c5ccc2[nH]5)C=C4)C=C3)cc1 [TPPC4]				active	
